Measurements: patent publication US5244898A, “Benzoheterocyclic compounds” (Otsuka Pharmaceutical Co., Ltd., priority 1991, dated 1993)
Structures can show the parent of a compound that is named as a salt.

Experiments:
[1] = target: T1, V2 Receptor (Rattus norvegicus, UniProt Q00788); experiment: V2 Receptor Binding Assay ([3H]-Arg-vasopressin, rat kidney plasma membrane); conditions: 4° C., pH 8.0
T1 construct: rat kidney plasma membrane preparations; from tissue; host or cells: rat kidney plasma membranes
Procedure: Chem., 253, 3211 (1978)], the plasma membrane (100000 dpm, 4×10^-10M) of [^3 H]-Arg-vasopressin and a test compound (0.6 mg, 10^-10 -10^-5 M) are incubated at 4° C. for 3 hours in 100 mM Tris-HCl buffer pH: 8.0 (250 μl ) containing 5 mM MgCl2, 1 mM EDTA and 0.1 % BSA. After incubation, the mixture is filtered using the glass filter (GF/F) so as to separate the membrane preparation combining with vasopressin and then washed twice with the buffer (5 ml). This glass filter is taken out and mixed with liquid scintillation cocktail. The amount of [^3 H]-vasopressin combining with the membrane is measured by liquid scintillation counter and the rate of the inhibitory effect of the test compound is estimated according to the following equation. [formula]
(§1) C1 : The amount of [^3 H]-vasopressin combining with the membrane in the presence of the test compound of a known amount.
(§2) C0 : The amount of [^3 H]-vasopressin combining with the membrane in the absence of the test compound.
B1 : The amount of [3H-vasopressin combining with the membrane in the presence of the excess amount of vasopressin (10^-6 M).
(§3) The results are expressed as IC50 value, which is the concentration of the test compound required to achieve the inhibitory effect in the rate of 50%.

[2] = target: V1 Receptor (Rattus norvegicus, UniProt P30560); experiment: V1 Receptor Binding Assay ([3H]-Arg-vasopressin, rat liver plasma membrane); conditions: 37° C., 10 minutes, pH 8.0
V1 Receptor, sequence (P30560 whole entry): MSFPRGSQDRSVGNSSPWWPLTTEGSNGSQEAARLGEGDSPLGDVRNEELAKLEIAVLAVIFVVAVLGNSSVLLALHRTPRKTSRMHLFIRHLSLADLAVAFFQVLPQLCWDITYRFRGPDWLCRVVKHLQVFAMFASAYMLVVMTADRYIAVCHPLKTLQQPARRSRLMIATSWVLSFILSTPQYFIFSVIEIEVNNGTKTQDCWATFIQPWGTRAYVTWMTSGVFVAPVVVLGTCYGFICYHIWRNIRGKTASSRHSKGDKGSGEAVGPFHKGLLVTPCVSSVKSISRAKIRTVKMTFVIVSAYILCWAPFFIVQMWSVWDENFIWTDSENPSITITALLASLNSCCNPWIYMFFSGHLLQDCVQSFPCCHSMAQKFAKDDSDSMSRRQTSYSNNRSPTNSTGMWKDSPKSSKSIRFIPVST
Procedure: After incubation, the mixture is filtered three times using the glass filter (GF/F) so as to separate the membrane preparation combining with vasopressin and then washed with the buffer (5 ml). This glass filter is taken out and mixed with liquid scintillation cocktail. The amount of [^3 H]-vasopressin combining with the membrane is measured by liquid scintillation counter and the rate of the inhibitory effect of the test compound is estimated according to the following equation.
as §1, §2
B1 : The amount of [^3 H]-vasopressin combining with the membrane in the presence of the excess amount of vasopressin (10^-6 M).
as §3

T1 sequence (Q00788 whole entry): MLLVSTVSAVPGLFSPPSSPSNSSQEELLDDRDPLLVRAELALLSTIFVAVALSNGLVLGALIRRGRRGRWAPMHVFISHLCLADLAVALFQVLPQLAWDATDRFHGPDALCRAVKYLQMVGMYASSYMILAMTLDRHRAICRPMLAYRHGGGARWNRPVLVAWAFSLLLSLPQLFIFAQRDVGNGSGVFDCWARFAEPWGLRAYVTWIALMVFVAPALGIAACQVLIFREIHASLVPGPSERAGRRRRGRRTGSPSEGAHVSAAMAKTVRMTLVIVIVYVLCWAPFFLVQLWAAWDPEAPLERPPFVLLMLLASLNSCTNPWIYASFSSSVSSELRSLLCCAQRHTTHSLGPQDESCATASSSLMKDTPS

Structure (SMILES)	IC50 [1]	IC50 [2]
CN(C)C1CCCN(C(=O)c2ccc(NC(=O)Cc3c(Cl)cccc3Cl)cc2)c2ccccc21 (stereo not shown) [Test Compound 6, 5-Dimethylamino-1-{4-[2-(2,6-dichlorophenyl)acetylamino]benzoyl}-2,3,4,5-tetrahydro-1H-benzazepine]	24 nM	120 nM
COCC(=O)OC1CCCN(C(=O)c2ccc(NC(=O)c3ccccc3C)cc2)c2ccc(Cl)cc21 (stereo not shown) [Test Compound 24, 5-(2-Methoxyacetyloxy)-7-chloro-1-[4-(2-methylbenzoylamino)benzoyl]-2,3,4,5-tetrahydro-1H-benzazepine]	7 nM	18 nM
COc1cc(NC(=O)Cc2ccccc2C)ccc1C(=O)N1CCCC(O)c2cc(Cl)ccc21 (stereo not shown) [Test Compound 18, 5-Hydroxy-7-chloro-1-{2-methoxy-4-[2-(2-methylphenyl)acetylamino]benzoyl}-2,3,4,5-tetrahydro-1H-benzazepine]	4 nM	55 nM
COc1cc(C(=O)N2CCCCc3cc(Cl)ccc32)ccc1NC(=O)c1ccccc1OCCCCN1CCN(C(C)=O)CC1 [Test Compound 56, 7-Chloro-1-[3-methoxy-4-{2-[4-(4-acetyl-1-piperazinyl)butoxy]benzoylamino}benzoyl]-2,3,4,5-tetrahydro-1H-benzazepine]		7 nM
CN(C)C1CCCN(C(=O)c2ccc(NC(=O)Cc3ccccc3Cl)cc2)c2ccccc21 (stereo not shown) [Test Compound 3, 5-Dimethylamino-1-{4-[2-(2-chlorophenyl)acetylamino]benzoyl}-2,3,4,5-tetrahydro-1H-benzazepine]	61 nM	
CN(C)C1CCCN(C(=O)c2ccc(NC(=O)Cc3ccccc3F)cc2)c2ccccc21 (stereo not shown) [Test Compound 5, 5-Dimethylamino-1-{4-[2-(2-fluorophenyl)acetylamino]benzoyl}-2,3,4,5-tetrahydro-1H-benzazepine]	59 nM	
Cc1ccccc1C(=O)Nc1ccc(C(=O)N2CCCC(OC(=O)[C@H](C)N)c3ccccc32)c(Cl)c1 (stereo partly drawn) [Test Compound 9, 5-(L-Alanyloxy)-1-[2-chloro-4-(2-methylbenzoylamino)benzoyl]-2,3,4,5-tetrahydro-1H-benzazepine hydrochloride]	17 nM	
Cc1ccccc1C(=O)Nc1ccc(C(=O)N2CCCC(OC(=O)[C@@H]3CCCN3)c3ccccc32)c(Cl)c1 (single isomer, unassigned) [Test Compound 12, 5-(L-Prolyloxy)-1-[2-chloro-4-(2-methylbenzoylamino)benzoyl]-2,3,4,5-tetrahydro-1H-benzazepine hydrochloride]	9 nM	
Cc1ccccc1C(=O)Nc1ccc(C(=O)N2CCCC(OCC(=O)NCC(=O)O)c3cc(F)ccc32)c(Cl)c1 (stereo not shown) [Test Compound 22, 5-Carboxymethylaminocarbonylmethoxy-7-fluoro-1-[2-chloro-4-(2-methylbenzoylamino)benzoyl]-2,3,4,5-tetrahydro-1H-benzazepine]	18 nM	
CC(=O)Oc1ccc2c(c1)C(N(C)C)CCCN2C(=O)c1ccc(NC(=O)c2ccccc2Cl)cc1Cl (stereo not shown) [Test Compound 11]	110 nM	
O=C(Nc1ccc(C(=O)N2CCCC(O)(CO)c3cc(O)ccc32)c(Cl)c1)c1ccccc1Cl (stereo not shown) [Test Compound 19, 5,7-Dihydroxy-5-hydroxymethyl-1-[2-chloro-4-(2-chlorobenzoylamino)benzoyl]-2,3,4,5-tetrahydro-1H-benzazepine]	2800 nM	
CN(C)C1CCCN(C(=O)c2ccc(NC(=O)c3ccccc3Cl)cc2Cl)c2ccc(O)cc21 (stereo not shown) [Test Compound 8, 5-Dimethylamino-7-hydroxy-1-[2-chloro-4-(2-chlorobenzoylamino)benzoyl]-2,3,4,5-tetrahydro-1H-benzazepine]	250 nM	

More lines, now with the values ahead:

IC50 [1]	IC50 [2]	Structure (SMILES)
150 nM	160 nM	Cc1ccccc1C(=O)Nc1ccc(C(=O)N2CCCC(C#N)c3cc(Cl)ccc32)cc1Cl (stereo not shown) [Test Compound 38, 5-Cyano-7-chloro-1-[3-chloro-4-(2-methylbenzoylamino)benzoyl]-2,3,4,5-tetrahydro-1H-benzazepine]
9 nM	89 nM	COc1cc(NC(=O)c2ccccc2C)ccc1C(=O)N1CCCC(CN2CCN(C)CC2)c2cc(F)ccc21 (stereo not shown) [Test Compound 46, 5-[(4-Methyl-I-piperazinyl)methyl]-7-fluoro-1-[2-methoxy-4-(2-methylbenzoylamino)benzoyl]-2,3,4,5-tetrahydro-1H-benzazepine]
4 nM	21 nM	Cc1ccccc1C(=O)Nc1ccc(C(=O)N2CCCC(COC(=O)CN(C)C)c3cc(Cl)ccc32)cc1 (stereo not shown) [Test Compound 25, 5-[2-(Dimethylaminoacetyloxy)methyl]-7-chloro-1-[4-(2-methylbenzoylamino)benzoyl]-2,3,4,5-tetrahydro-1H-benzazepine hydrochloride]
9 nM	31 nM	COc1cc(C(=O)N2CCCC(CC(=O)NC3CCNCC3)c3cc(Cl)ccc32)ccc1NC(=O)c1ccccc1C (stereo not shown) [Test Compound 30, 5-[(4-Piperidinyl)aminocarbonylmethyl]-7-chloro-1-[3-methoxy-4-(2-methylbenzoylamino)benzoyl]-2,3,4,5-tetrahydro-1H-benzazepine hydrochloride]
6 nM	24 nM	COc1cc(NC(=O)c2ccccc2Cl)ccc1C(=O)N1CCCC(CC(=O)N2CCN(C)CC2)c2cc(Cl)ccc21 (stereo not shown) [Test Compound 44, 5-[(4-Methyl-1-piperazinyl)carbonylmethyl]-7-chloro-1-[2-methoxy-4-(2-chlorobenzoylamino)benzoyl]-2,3,4,5-tetrahydro-1H-benzazepine hydrochloride]
7 nM	34 nM	COc1cc(C(=O)N2CCCC(CC(=O)N3CCN(C)CC3)c3cc(Cl)ccc32)ccc1NC(=O)c1ccccc1C (stereo not shown) [Test Compound 27, 5-[(4-Methyl-1-piperazinyl)carbonylmethyl]-7-chloro-1-[3-methoxy-4-(2-methylbenzoylamino)benzoyl]-2,3,4,5-tetrahydro-1H-benzazepine]
6 nM	70 nM	COc1cc(NC(=O)c2ccccc2C)ccc1C(=O)N1CCCC(OCCN2CCNCC2)c2cc(Cl)ccc21 (stereo not shown) [Test Compound 43, 5-[2-(1-Piperazinyl)ethoxy]-7-chloro-1-[2-methoxy-4-(2-methylbenzoylamino)benzoyl]-2,3,4,5-tetrahydro-1H-benzazepine dihydrochloride]
6 nM	16 nM	COc1cc(NC(=O)c2ccccc2C)ccc1C(=O)N1CCCC(CC(=O)N2CCNCC2)c2cc(Cl)ccc21 (stereo not shown) [Test Compound 52, 5-[(1-Piperazinyl)carbonylmethyl]-7-chloro-1-[2-methoxy-4-(2-methylbenzoylamino)benzoyl]-2,3,4,5-tetrahydro-1H-benzazepine hydrochloride]
6 nM	160 nM	CNC(=O)CC1CCCN(C(=O)c2ccc(NC(=O)c3ccccc3C)cc2OC)c2ccc(F)cc21 (stereo not shown) [Test Compound 42, 5-Methylaminocarbonylmethyl-7-fluoro-1-[2-methoxy-4-(2-methylbenzoylamino)benzoyl]-2,3,4,5-tetrahydro-1H-benzazepine]
6 nM	40 nM	COc1cc(NC(=O)c2ccccc2C)ccc1C(=O)N1CCCC(OC(=O)[C@@H](N)CCCCN)c2cc(Cl)ccc21 (stereo partly drawn) [Test Compound 29, 5-(L-Lysyloxy)-7-chloro-1-[2-methoxy-4-(2-methylbenzoylamino)benzoyl]-2,3,4,5-tetrahydro-1H-benzazepine dihydrochloride]
15 nM	110 nM	Cc1ccccc1C(=O)Nc1ccc(C(=O)N2CCCC(CC(=O)N3CCCC3)c3cc(F)ccc32)cc1 (stereo not shown) [Test Compound 50, 5-[(1-Pyrrolidinyl)carbonylmethyl]-7-fluoro-1-[4-(2-methylbenzoylamino)benzoyl]-2,3,4,5-tetrahydro-1H-benzazepine]
6 nM	9 nM	COc1cc(NC(=O)c2ccccc2C)ccc1C(=O)N1CCCC(OCCN2CCCC2)c2cc(Cl)ccc21 (stereo not shown) [Test Compound 34, 5-[2-(1-Pyrrolidinyl)ethoxy]-7-chloro-1-[2-methoxy-4-(2-methylbenzoylamino)benzoyl]-2,3,4,5-tetrahydro-1H-benzazepine hydrochloride]
10 nM	45 nM	COc1cc(NC(=O)c2ccccc2Br)ccc1C(=O)N1CCCC(CC(=O)N2CCC(NC(C)=O)CC2)c2cc(F)ccc21 (stereo not shown) [Test Compound 60, 5-[(4-Acetylamino-1-piperidinyl)carbonylmethyl]-7-fluoro-1-[2-methoxy-4-(2-bromobenzoylamino)benzoyl]-2,3,4,5-tetrahydro-1H-benzazepine]
5.4 nM	210 nM	COc1cc(NC(=O)c2ccccc2C)ccc1C(=O)N1CCCC(OCCCOS(=O)(=O)c2ccc(C)cc2)c2cc(Cl)ccc21 (stereo not shown) [Test Compound 37, 5-[3-(p-Toluenesulfonyloxy)propoxy]-7-chloro-1-[2-methoxy-4-(2-methylbenzoylamino)benzoyl]-2,3,4,5-tetrahydro-1H-benzazepine]
6.2 nM		Cc1ccccc1C(=O)Nc1ccc(C(=O)N2CCCC(OCCCN3CCOCC3)c3cc(F)ccc32)c(C)c1 (stereo not shown) [Test Compound 35, 5-(3-Morpholinopropoxy)-7-fluoro-1-[2-methyl-4-(2-methylbenzoylamino)benzoyl]-2,3,4,5-tetrahydro-1H-benzazepine]
7.6 nM		Cc1ccccc1C(=O)Nc1ccc(C(=O)N2CCCC(OCCCn3ccnc3)c3cc(F)ccc32)c(C)c1 (stereo not shown) [Test Compound 36, 5-[3-(1-Imidazolyl)propoxy]-7-fluoro-1-[2-methyl-4-(2-methylbenzoylamino)benzoyl]-2,3,4,5-tetrahydro-1H-benzazepine]
9 nM		Cc1ccccc1C(=O)Nc1ccc(C(=O)N2CCCC(OCC(=O)NC3CCN(C)CC3)c3cc(Cl)ccc32)c(C)c1 (stereo not shown) [Test Compound 59, 5-[(1-Methyl-4-piperidinyl)aminocarbonyl-methoxy]-7-chloro-1-[2-methyl-4-(2-methylbenzoylamino)-benzoyl]-2,3,4,5-tetrahydro-1H-benzazepine]
